Test results taken from US12215112B2, “CD151 inhibitors” (ESFAM BIOTECH PTY LTD, priority 2020, dated 2025).

tested on: PC3 cells; assay: xCELLigence RTCA real-time cell invasion assay (CIM plate, Matrigel) on PC3 prostate cancer cells; assay type: cell-based; settings: Homo sapiens, PC-3, compound 25 uM to 1 uM, cell index monitored for 72 hours, four-parameter dose-response curve, read-out: IC50, Effect of compounds on the invention on prostate cancer cells
How it was run: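 PC3 invasion through 5% Matrigel-coated CIM-plate upper chambers was tracked as impedance cell index over 72 h. Compound at 25–1 µM was present in both chambers, with 3×10^4 cells seeded in serum-free RPMI. IC50 came from a four-parameter fit, and IC90 was derived from IC50 and the Hill slope.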

Question: How did the IC50 turn out when `COc1cccc(NC(=O)c2nn3c(-c4cn[nH]c4)cc(N4Cc5ccc(F)cc5C4)nc3c2C(C)C)c1F` [Compound 122, N-(2-fluoro-3-methoxyphenyl)-5-(5-fluoroisoindolin-2-yl)-3-isopropyl-7-(1H-pyrazol-4-yl)pyrazolo[1,5-a]pyrimidine-2-carboxamide] was run?
Answer: 9.07 µM

Question: With `CC(C)c1c(C(=O)Nc2ccc(OC3CCOCC3)cc2)nn2c(-c3cn[nH]c3)cc(N3Cc4ccc(F)cc4C3)nc12` [Compound 123, 5-(5-fluoroisoindolin-2-yl)-3-isopropyl-7-(1H-pyrazol-4-yl)-N-(4-((tetrahydro-2H-pyran-4-yl)oxy)phenyl)pyrazolo[1,5-a]pyrimidine-2-carboxamide] as the compound, how does the IC50 read?
Answer: 1.02 µM

Question: With `COc1ccc(F)c(NC(=O)c2nn3c(-c4cn[nH]c4)cc(N4Cc5ccc(F)cc5C4)nc3c2C(C)C)c1` [Compound 124, N-(2-fluoro-5-methoxyphenyl)-5-(5-fluoroisoindolin-2-yl)-3-isopropyl-7-(1H-pyrazol-4-yl)pyrazolo[1,5-a]pyrimidine-2-carboxamide] as the compound, how does the IC50 read?
Answer: 1.15 µM

Question: How did the IC50 turn out when `COc1cccc(NC(=O)c2nn3c(-c4cn[nH]c4)cc(N4Cc5cccc(F)c5C4)nc3c2C(C)C)c1` [Compound 125, 5-(4-fluoroisoindolin-2-yl)-3-isopropyl-N-(3-methoxyphenyl)-7-(1H-pyrazol-4-yl)pyrazolo[1,5-a]pyrimidine-2-carboxamide] was run?
Answer: 7.62 µM

Question: `COc1cccc(NC(=O)c2nn3c(-c4cn[nH]c4)cc(N4Cc5cccc(Cl)c5C4)nc3c2C(C)C)c1` [Compound 126, 5-(4-chloroisoindolin-2-yl)-3-isopropyl-N-(3-methoxyphenyl)-7-(1H-pyrazol-4-yl)pyrazolo[1,5-a]pyrimidine-2-carboxamide] was tested. Which IC50 did it give?
Answer: 1.21 µM
